Experimental data: article PMC7144120, “Psoralen Derivatives as Inhibitors of Mycobacterium tuberculosis Proteasome” (Molecules, 2020)
“Also recorded” adds a separate entry of the source. Like-named read-outs stand apart in the source and are kept apart here.

What was measured:
Mtb proteasome [1] = target: T1, Mtb proteasome (Mycobacterium tuberculosis, UniProt P9WHT9); format: biochemical; conditions: for Reversibility of inhibition: Mtb proteasome, 100-fold dilution after preincubation
T1 construct: made in house
T1 sequence (P9WHT9 whole entry, looked up): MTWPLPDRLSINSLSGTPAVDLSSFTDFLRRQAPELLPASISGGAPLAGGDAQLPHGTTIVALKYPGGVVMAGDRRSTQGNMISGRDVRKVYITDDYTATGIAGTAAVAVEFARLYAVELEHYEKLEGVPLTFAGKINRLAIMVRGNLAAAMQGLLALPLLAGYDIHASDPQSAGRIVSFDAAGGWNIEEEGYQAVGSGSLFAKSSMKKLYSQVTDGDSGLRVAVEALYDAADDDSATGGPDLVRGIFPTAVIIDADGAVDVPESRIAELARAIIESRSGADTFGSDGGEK

ß5i of IP = conditions: cited from earlier work; for IC50: read-out: IC50 against ß5i of IP; for RA at 10 µM against ß5i of IP: residual activity of β5i in the presence of 10 μM compound
Mtb proteasome [2] = target: T1, Mtb proteasome; test: biochemical; format: biochemical; conditions: for IC50: 50 µM Suc-LLVY-AMC, 30 min preincubation, 37 °C, triplicate, read-out: IC50 against the Mtb proteasome; for Hill Coefficient: from IC50 curve, Mtb proteasome
Mtb proteasome [3] = target: T1, Mtb proteasome; test: Determination of Ki and type of inhibition (varied substrate concentration, GraphPad Prism model fit); format: biochemical; conditions: for Ki: best scoring inhibition model; for Type of Inhibition: best ranking model (mixed, competitive, noncompetitive, uncompetitive)
Procedure: The concentrations of 11, 13 and 15 were 0, 0.56, 0.81, 1.15, 1.65, 2.35, 4.80, 9.80 and 20 µM. Further, the concentrations for compound 8 were 0, 1.65, 2.35, 4.80, 9.80 µM and for bortezomib 0, 0.28, 0.40, 0.58, 0.82, 1.18, 2.40, 4.90 and 10 µM. All experiments were performed in triplicate. The resulting data were analyzed using the GraphPad Prism 6 software and were fitted to the software provided models for competitive, noncompetitive, uncompetitive and mixed type enzyme inhibition. The mode of inhibition and Ki values were chosen from the best ranking model, as determined by the software. Representative graphs (Michaelis-Menten, Dixon and Lineweaver-Burk plots) depicting the data fit for the best ranking model of inhibition for all compounds are shown in the Supplementary data (Figures S2–S19).

| Structure (SMILES) | RA at 10 µM against ß5i of IP (ß5i of IP) [%] | RA at 100 µM against Mtb (Mtb proteasome [2]) [%] | other results |
| --- | --- | --- | --- |
| CC(C)C[C@H](NC(=O)[C@H](Cc1ccccc1)NC(=O)c1cnccn1)B(O)O [Bortezomib, reference compound] |  |  | proteasome activity retained (Mtb proteasome [1]; 5 × IC50 concentration, 0-, 15-, 30- or 60-min preincubation at 25 °C): approximately 55%; Reversibility of inhibition (Mtb proteasome [1]): (Slow) reversible inhibition; Reversibility of inhibition (Mtb proteasome [1]; listed as bortezomib): “slow/partially” reversible; loss of enzyme activity compared to the DMSO control (Mtb proteasome [1]; concentrations equal or higher than IC50, longer preincubation time): ≤ 45%; IC50 (ß5i of IP): 4 nM; IC50 (Mtb proteasome [2]): 110 ± 30 nM; Hill Coefficient (Mtb proteasome [2]): 0.76; α (mixed inhibition model) (Mtb proteasome [3]): 0.85; Ki (Mtb proteasome [3]; Ki): 133 nM; Type of Inhibition (Mtb proteasome [3]): Mixed inhibition; Type of Inhibition (Mtb proteasome [3]; listed as bortezomib): mixed type of inhibition |
| Cc1c(CCC(=O)NCC#N)c(=O)oc2cc3occ(C(C)(C)C)c3cc12 [Compound 8] | 100 |  | Reversibility of inhibition (Mtb proteasome [1]): reversible inhibitors; also recorded: Reversible inhibition; IC50 (Mtb proteasome [2]): 3700 ± 1500 nM; Hill Coefficient (Mtb proteasome [2]): 1.05; α (mixed inhibition model) (Mtb proteasome [3]): 0.19; Ki (Mtb proteasome [3]; Ki): 5600 nM; Type of Inhibition (Mtb proteasome [3]): mixed type of inhibition |
| Cc1c(CCC=O)c(=O)oc2cc3c(cc12)C(c1ccccc1)CO3 (stereo not shown) [Compound 15] |  |  | Reversibility of inhibition (Mtb proteasome [1]): reversible inhibitors; also recorded: Reversible inhibition; IC50 (Mtb proteasome [2]): 5800 ± 2100 nM; Hill Coefficient (Mtb proteasome [2]): 0.55; α (mixed inhibition model) (Mtb proteasome [3]): 0.22; Type of Inhibition (Mtb proteasome [3]): mixed type of inhibition; Ki (Mtb proteasome [3]; read-out: Ki): 14900 nM |
| Cc1c(CCC(=O)N(C)CC#N)c(=O)oc2cc3occ(C4CCCCC4)c3cc12 [Compound 45] | 111 | 92 |  |
| Cc1c(CCC(=O)NCC#N)c(=O)oc2cc3occ(-c4ccc(Br)cc4)c3cc12 [Compound 46] | 107 | 82 |  |
| Cc1coc2cc3oc(=O)c(CCC(=O)NCC#N)c(C)c3cc12 [Compound 47] | 105 | 95 |  |
| Cc1cc(-c2coc3cc4oc(=O)c(CCC(=O)NCC#N)c(C)c4cc23)c(C)s1 [Compound 48] | 109 | 100 |  |
| Cc1c(CCC(=O)NCC#N)c(=O)oc2cc3occ(-c4ccco4)c3cc12 [Compound 49] | 97 | 100 |  |
| Cc1c(CCC(=O)NCC#N)c(=O)oc2cc3occ(C4CCCCC4)c3cc12 [Compound 50] | 102 | 96 |  |
| Cc1c(CC(=O)N(C)CC#N)c(=O)oc2cc3occ(-c4ccccc4)c3cc12 [Compound 51] | 97 | 93 |  |
| Cc1c(CC(=O)N(C)CC#N)c(=O)oc2cc3occ(-c4ccc(Br)cc4)c3cc12 [Compound 52] | 86 | 70 |  |
| Cc1c(CC(=O)N(C)CC#N)c(=O)oc2cc3occ(C(C)(C)C)c3cc12 [Compound 53] | 96 | 97 |  |
| Cc1coc2cc3oc(=O)c(CC(=O)N(C)CC#N)c(C)c3cc12 [Compound 54] | 99 | 95 |  |
| Cc1cc(-c2coc3cc4oc(=O)c(CC(=O)N(C)CC#N)c(C)c4cc23)c(C)s1 [Compound 55] | 103 | 88 |  |
| Cc1c(CC(=O)N(C)CC#N)c(=O)oc2cc3occ(-c4ccco4)c3cc12 [Compound 56] | 103 | 53 |  |
| Cc1cc(-c2coc3cc4oc(=O)c(CC(=O)N(C)CC#N)c(C)c4cc23)c(C)o1 [Compound 57] | 96 | 100 |  |
| Cc1c(CC(=O)N(C)CC#N)c(=O)oc2cc3occ(C4CCCCC4)c3cc12 [Compound 58] | 101 | 100 |  |
| Cc1c(CC(=O)NCC#N)c(=O)oc2cc3occ(-c4ccccc4)c3cc12 [Compound 59] | 101 | 92 |  |
| Cc1c(CC(=O)NCC#N)c(=O)oc2cc3occ(-c4ccc(Br)cc4)c3cc12 [Compound 60] | 105 | 87 |  |
| Cc1c(CC(=O)NCC#N)c(=O)oc2cc3occ(C(C)(C)C)c3cc12 [Compound 61] | 91 | 92 |  |
| Cc1cc(-c2coc3cc4oc(=O)c(CC(=O)NCC#N)c(C)c4cc23)c(C)s1 [Compound 63] | 101 | 95 |  |
| Cc1c(CC(=O)NCC#N)c(=O)oc2cc3occ(-c4ccco4)c3cc12 [Compound 64] | 98 | 91 |  |
| Cc1c(CC(=O)NCC#N)c(=O)oc2cc3occ(C4CCCCC4)c3cc12 [Compound 65] | 99 | 91 |  |
| Cc1c(CCC(=O)ON2C(=O)CCC2=O)c(=O)oc2cc3occ(-c4ccccc4)c3cc12 [Compound 66] |  | 66 | IC50 (ß5i of IP): 9 ± 2 nM |

| Structure (SMILES) | RA at 10 µM against ß5i of IP (ß5i of IP) [%] | RA at 100 µM against Mtb (Mtb proteasome [2]) [%] | other results |
| --- | --- | --- | --- |
| Cc1c(CCC(=O)ON2C(=O)CCC2=O)c(=O)oc2cc3occ(-c4ccc(Br)cc4)c3cc12 [Compound 67] |  | 96 | IC50 (ß5i of IP): 1900 ± 900 nM |
| COc1ccc(-c2coc3cc4oc(=O)c(CCC(=O)ON5C(=O)CCC5=O)c(C)c4cc23)cc1 [Compound 68] |  | 93 | IC50 (ß5i of IP): 640 ± 130 nM |
| COc1cccc(-c2coc3cc4oc(=O)c(CCC(=O)ON5C(=O)CCC5=O)c(C)c4cc23)c1 [Compound 69] |  | 72 | IC50 (ß5i of IP): 930 ± 570 nM |
| Cc1c(CCC(=O)ON2C(=O)CCC2=O)c(=O)oc2cc3occ(C(C)(C)C)c3cc12 [Compound 70] | 41 | 70 |  |
| Cc1coc2cc3oc(=O)c(CCC(=O)ON4C(=O)CCC4=O)c(C)c3cc12 [Compound 71] | 66 | 97 |  |
| Cc1cc(-c2coc3cc4oc(=O)c(CCC(=O)ON5C(=O)CCC5=O)c(C)c4cc23)c(C)s1 [Compound 72] |  | 95 | IC50 (ß5i of IP): 1800 ± 800 nM |
| Cc1c(CC(=O)ON2C(=O)CCC2=O)c(=O)oc2cc3occ(-c4ccccc4)c3cc12 [Compound 73] |  | 79 | IC50 (ß5i of IP): 6360 ± 610 nM |
| Cc1c(CC(=O)ON2C(=O)CCC2=O)c(=O)oc2cc3occ(-c4ccc(Br)cc4)c3cc12 [Compound 74] | 101 | 61 |  |
| Cc1c(CC(=O)ON2C(=O)CCC2=O)c(=O)oc2cc3occ(C(C)(C)C)c3cc12 [Compound 75] | 53 | 88 |  |
| Cc1coc2cc3oc(=O)c(CC(=O)ON4C(=O)CCC4=O)c(C)c3cc12 [Compound 76] | 101 | 53 |  |
| Cc1c(CC(=O)ON2C(=O)CCC2=O)c(=O)oc2cc3occ(-c4ccco4)c3cc12 [Compound 77] | 44 | 56 |  |
| Cc1c(CC(=O)ON2C(=O)CCC2=O)c(=O)oc2cc3occ(C4CCCCC4)c3cc12 [Compound 78] | 62 | 98 |  |
| Cc1c(CCC(=O)ON2C(=O)CCC2=O)c(=O)oc2c(C)c3occ(-c4ccccc4)c3cc12 [Compound 79] |  | 100 | IC50 (ß5i of IP): 3260 ± 1490 nM |
| Cc1c(CNC(=O)CC#N)c(=O)oc2cc3occ(-c4ccccc4)c3cc12 [Compound 81] | 101 | 100 |  |
| C=CC(=O)NCc1c(C)c2cc3c(-c4ccccc4)coc3cc2oc1=O [Compound 82] | 90 | 68 |  |
| CC=CC(=O)NCc1c(C)c2cc3c(-c4ccccc4)coc3cc2oc1=O [Compound 83] | 116 | 52 |  |
| Cc1c(N)c(=O)oc2cc3occ(-c4ccccc4)c3cc12 [Compound 84] | 88 | 100 |  |
| Cc1c(NC(=O)CC#N)c(=O)oc2cc3occ(-c4ccccc4)c3cc12 [Compound 85] | 115 | 93 |  |
| C=CC(=O)Nc1c(C)c2cc3c(-c4ccccc4)coc3cc2oc1=O [Compound 86] |  | 95 | IC50 (ß5i of IP): 20500 ± 1360 nM |
| C/C=C/C(=O)Nc1c(C)c2cc3c(-c4ccccc4)coc3cc2oc1=O [Compound 87] | 102 | 93 |  |
| Cc1c(-c2nsc(=O)o2)c(=O)oc2cc3occ(-c4ccccc4)c3cc12 [Compound 88] |  | 84 | IC50 (ß5i of IP): 13 ± 4 nM |
| Cc1c(Cc2nsc(=O)o2)c(=O)oc2cc3occ(-c4ccccc4)c3cc12 [Compound 89] |  | 65 | IC50 (ß5i of IP): 120 ± 50 nM |
| Cc1c(CCc2nsc(=O)o2)c(=O)oc2cc3occ(-c4ccccc4)c3cc12 [Compound 90] |  | 69 | IC50 (ß5i of IP): 200 ± 40 nM |
